33 molecules from ChEMBL document CHEMBL2396555, “Synthesis and acrosin inhibitory activities of 5-phenyl-1H-pyrazole-3-carboxylic acid amide derivatives” (Bioorg Med Chem Lett, 2013) can be followed below.

Usually IC50 stands for the point on the concentration scale where inhibition reaches its midpoint.

Acrosin, sequence (P10323 20-42 limits assumed): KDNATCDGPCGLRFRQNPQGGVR
Acrosin, sequence (P10323 43-343 limits assumed): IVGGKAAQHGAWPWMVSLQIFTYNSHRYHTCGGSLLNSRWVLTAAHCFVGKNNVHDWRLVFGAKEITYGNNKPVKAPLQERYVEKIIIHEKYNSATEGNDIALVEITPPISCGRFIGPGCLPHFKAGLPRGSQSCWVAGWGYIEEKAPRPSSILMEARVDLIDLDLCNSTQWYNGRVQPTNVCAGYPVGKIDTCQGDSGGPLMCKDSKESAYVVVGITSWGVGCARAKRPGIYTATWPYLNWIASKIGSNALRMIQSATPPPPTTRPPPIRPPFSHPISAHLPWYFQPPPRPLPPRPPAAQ

The experiment addresses Acrosin (Homo sapiens, UniProt P10323). Nature of the experiment: Inhibition of human sperm acrosin using BAPNA as substrate after 3 hrs by spectrophotometric analysis.
Take `O=Cc1cc(-c2ccc(Cl)cc2Cl)on1`: the IC50 turned out to be 390 µM. With `COc1ccc(-c2cc(C(=O)N(C)CCO)n[nH]2)cc1` the figure was 410 µM; with `COc1ccc(-c2cc(C(=O)NCCOCCO)n[nH]2)cc1`, 6020 µM; with `O=C(NCCO)c1cc(-c2ccc([N+](=O)[O-])cc2)[nH]n1`, 2700 µM. For `O=C(c1cc(-c2ccc([N+](=O)[O-])cc2)[nH]n1)N(CCO)CCO` the value was 5600 µM. With `O=C(NCCCO)c1cc(-c2ccc([N+](=O)[O-])cc2)[nH]n1` the figure was 3070 µM; with `CC(O)CNC(=O)c1cc(-c2ccc([N+](=O)[O-])cc2)[nH]n1` (stereo not drawn), 2950 µM. In turn, `CC(O)CN(CC(C)O)C(=O)c1cc(-c2ccc([N+](=O)[O-])cc2)[nH]n1` (stereo not drawn) returned an IC50 of 1210 µM. With `CN(CCO)C(=O)c1cc(-c2ccc([N+](=O)[O-])cc2)[nH]n1` the figure was 2000 µM; with `CC(C)(CO)NC(=O)c1cc(-c2ccc([N+](=O)[O-])cc2)[nH]n1`, 1875 µM; with `O=C(NCCOCCO)c1cc(-c2ccc([N+](=O)[O-])cc2)[nH]n1`, 2070 µM. With `O=C(NC(CO)(CO)CO)c1cc(-c2ccc([N+](=O)[O-])cc2)[nH]n1` the figure was 5220 µM; with `O=C(NCCO)c1cc(-c2cccc([N+](=O)[O-])c2)[nH]n1`, 760 µM. For `O=C(c1cc(-c2cccc([N+](=O)[O-])c2)[nH]n1)N(CCO)CCO` the value was 2400 µM; for `O=C(NCCCO)c1cc(-c2cccc([N+](=O)[O-])c2)[nH]n1`, 780 µM. In turn, `CC(O)CNC(=O)c1cc(-c2cccc([N+](=O)[O-])c2)[nH]n1` (stereo not drawn) gave an IC50 of 1830 µM. With `CN(CCO)C(=O)c1cc(-c2cccc([N+](=O)[O-])c2)[nH]n1` the figure was 790 µM; with `O=C(NCCOCCO)c1cc(-c2cccc([N+](=O)[O-])c2)[nH]n1`, 9100 µM; with `O=C(NC(CO)(CO)CO)c1cc(-c2cccc([N+](=O)[O-])c2)[nH]n1`, 760 µM. For `O=C(NCCO)c1cc(-c2ccc(Br)cc2)[nH]n1` the value was 530 µM; for `O=C(c1cc(-c2ccc(Br)cc2)[nH]n1)N(CCO)CCO`, 1520 µM; for `O=C(NCCCO)c1cc(-c2ccc(Br)cc2)[nH]n1`, 380 µM. With `CC(O)CNC(=O)c1cc(-c2ccc(Br)cc2)[nH]n1` (stereo not drawn) the figure was 330 µM.

With `CC(CO)NC(=O)c1cc(-c2ccc(Br)cc2)[nH]n1` (stereo not drawn), the concentration for half-maximal inhibition (IC50) was 880 µM. The molecule `O=C(NCCOCCO)c1cc(-c2ccc(Br)cc2)[nH]n1` had an IC50 of 10000 µM. Against the preceding molecule, the IC50 is about 11-fold higher.

As to `O=C(NCCO)c1cc(-c2ccccc2)[nH]n1`, the IC50 came to 2800 µM. In turn, `O=C(c1cc(-c2ccccc2)[nH]n1)N(CCO)CCO` had an IC50 of 1700 µM.

Consider `O=C(NCCCO)c1cc(-c2ccccc2)[nH]n1`, for which the IC50 was 540 µM.

Molecule `CC(O)CNC(=O)c1cc(-c2ccccc2)[nH]n1` (stereo not drawn) had an IC50 of 60 µM. With `CC(O)CN(CC(C)O)C(=O)c1cc(-c2ccccc2)[nH]n1` (stereo not drawn) the figure was 10 µM. Take `CC(CO)NC(=O)c1cc(-c2ccccc2)[nH]n1` (stereo not drawn): the IC50 is 3000 µM. This IC50 is about 300-fold higher than that of the molecule before. For the molecule `O=C(NC(CO)(CO)CO)c1cc(-c2ccccc2)[nH]n1`, the IC50 is 940 µM. As for `COc1ccc(-c2cc(C(=O)NCCO)n[nH]2)cc1`, the IC50 amounted to 90 µM.
